Test results: paper PMC3909116 (PLoS ONE, 2014)
Where two headings read alike, the source gives them in different places.

Assays:
M. tuberculosis = conditions: against M. tuberculosis; cited from earlier work
M. tuberculosis H37Rv = assay type: in vivo
in vivo = assay: in vivo; set-up: species or system Balb/c mice; conditions: male, Balb/c, mouse, po, 30 mg/kg
Description: Samples were analyzed by LC-MS.
(A) Mouse survival curves from maximum tolerated dose study. All mice (n = 5) received one dose daily 6 times weekly for 4 weeks. 80% aqueous propylene glycol, (vehicle control).
Half-life and sequential exposure time of drug in serum is critical for its in vivo efficacious activity.

Row | SMILES | MIC (M. tuberculosis) | also measured
1 | C[C@]1(COc2ccc(N3CCC(Oc4ccc(OC(F)(F)F)cc4)CC3)cc2)Cn2cc([N+](=O)[O-])nc2O1 [Delamanid] | 0.006 to 0.024 µg/mL | 
2 | NNC(=O)c1ccncc1 [INH, isoniazid] | 0.3 µM | reduction of M. tuberculosis bacterial load in the spleen (M. tuberculosis H37Rv; relative to counts at initiation of chemotherapy (4.26 log10), Balb/c mice, oral once daily 6 times per week for 4 weeks, ND-09759 30 mg/kg, INH 25 mg/kg, RMP 20 mg/kg): 0.38 log10; reduction of M. tuberculosis bacterial load in the lung (M. tuberculosis H37Rv; relative to counts at initiation of chemotherapy (5.18 log10), Balb/c mice, oral once daily 6 times per week for 4 weeks, ND-09759 30 mg/kg, INH 25 mg/kg, RMP 20 mg/kg): 0.27 log10
3 | CC(=O)NC[C@H]1CN(c2ccc(N3CCOCC3)c(F)c2)C(=O)O1 [Linezolid] | 0.25 to 1 µg/mL | 
4 | Cc1ccn2c(C(=O)NCc3ccc(Oc4ccc(Cl)cc4)cc3)c(C)nc2c1 [ND-09759, N-(4-(4-chlorophenoxy)benzyl)-2,7-dimethylimidazo[1,2-a]pyridine-3-carboxamide] |  | AUC(0-t) (in vivo): 22200 ng·h/mL; Cmax (in vivo): 2900 ng/mL; half-life (in vivo): 20.1 h
5 | O=[N+]([O-])c1cn2c(n1)OC[C@@H](OCc1ccc(OC(F)(F)F)cc1)C2 [PA-824] | 0.015 to 0.25 µg/mL | 
6 | CO[C@H]1/C=C/O[C@@]2(C)Oc3c(C)c(O)c4c(O)c(c(/C=N/N5CCN(C)CC5)c(O)c4c3C2=O)NC(=O)/C(C)=C\C=C\[C@H](C)[C@H](O)[C@@H](C)[C@@H](O)[C@@H](C)[C@H](OC(C)=O)[C@@H]1C [RMP, rifampicin] | 0.003 µM | reduction of M. tuberculosis bacterial load in the lung (M. tuberculosis H37Rv; in vivo): 0.23 log10; reduction of M. tuberculosis bacterial load in the spleen (M. tuberculosis H37Rv; in vivo): 0.35 log10
7 | CC(C)=CCC/C(C)=C/CNCCNC1C2CC3CC(C2)CC1C3 (centres unmarked) [SQ109] | 0.7 to 1.56 µM | 
8 | COc1nc2ccc(Br)cc2cc1[C@@H](c1ccccc1)[C@@](O)(CCN(C)C)c1cccc2ccccc12 [TMC 207] | 0.030−0.120 µg/ml | 
